Values after ≈ are worked out from the molar mass of the structure shown. “Also recorded” adds a separate entry of the source. Where two headings read alike, the source gives them in different places.
What was measured:
[1] = test system: SF-295 CNS; assay: NCI panel, SF-295; type: cell-based, human
Text: (§1) Only two hundred years ago, many diseases ravaged humankind. Many of these diseases now have been controlled or eradicated. In the development of the means to treat or control these diseases, work with the appropriate common experimental animals was of critical importance. With the various types of cancers, and with the HIV virus, such work is presently ongoing. The research for the treatment of various types of cancer is coordinated in the United States by the National Cancer Institute (NCI). NCI, as a government entity, has been charged with assisting, inter alia, anti-cancer research. To determine whether a substance has anti-cancer activity, NCI has established a variety of protocols, one of which involves testing the candidate substance against a cell line panel containing 60 human tumor cell lines. This protocol has been verified and is generally accepted throughout the scientific community. This protocol and the established statistical means of evaluating the results obtained therefrom have been fully described in the literature. See Principles & Practice of Oncology PPO Updates, Volume 3, Number 10, October 1989, by Michael R. Boyd, M.D., Ph.D., for an in depth description of the test protocol. […]

[2] = test system: NCI H460 non-small cell lung; assay: NCI panel, NCI H460; type: cell-based, human
Text: as §1

[3] = test system: OVCAR-3 ovarian; assay: NCI panel, OVCAR-3; type: cell-based, human
Text: as §1

[4] = test system: human cancer cell lines; assay: NCI panel of sixty human cancer cell lines; type: cell-based; conditions: for activity against human cancer cell lines (in words): NCI panel
Text: Only two hundred years ago, many diseases ravaged humankind. Many of these diseases now have been controlled or eradicated. In the development of the means to treat or control these diseases, work with the appropriate common experimental animals was of critical importance. With the various types of cancers, and with the HIV virus, such work is presently ongoing. The research for the treatment of various types of cancer is coordinated in the United States by the National Cancer Institute (NCI). NCI, as a government entity, has been charged with assisting, inter alia, anti-cancer research. To determine whether a substance has anti-cancer activity, NCI has established a variety of protocols, one of which involves testing the candidate substance against a cell line panel containing 60 human tumor cell lines. This protocol has been verified and is generally accepted throughout the scientific community. This protocol and the established statistical means of evaluating the results obtained therefrom have been fully described in the literature. See Principles & Practice of Oncology PPO Updates, Volume 3, Number 10, October 1989, by Michael R. Boyd, M.D., Ph.D., for an in depth description of the test protocol. The statistical analysis of the test protocol is explained in "Display and Analysis of Patterns of Differential Activity of Drugs Against Human Tumor Cell Lines: Development of Means Graph and COMPARE Algorithm" Journal of the National Cancer Institute Reports Vol. 81, No. 14, Pg. 1088, Jul. 14, 1989, by K. D. Paull et al. The context of both of these references is specifically incorporated herein by this reference thereto.

[5] = test system: A-498 renal; assay: NCI panel, A-498; type: cell-based, human
Text: as §1

[6] = test system: SK-MEL-5 melanoma; assay: NCI panel, SK-MEL-5; type: cell-based, human
Text: as §1

[7] = test system: KM 20L2 colon; assay: NCI panel, KM 20L2; type: cell-based, human
Text: as §1

[8] = test system: P388 lymphocytic leukemia; assay: P388 lymphocytic leukemia cell line (PS system) growth inhibition; type: cell-based, murine

C=C/C=C\C(C)C1OC(=O)/C=C\C=C\C(C)C(O)CC(O)/C=C\C(C)C(O)C(C)CC(C)CCC(O)C1C (stereo not drawn) [dictyostatin 1] was tested, and the “activity against SF-295 (in words)” value [1] was “active and selective”, the “activity against NCI H460 (in words)” value [2] was “active and selective” and the “activity against OVCAR-3 (in words)” value [3] was “active and selective”. For the same compound, the “activity against human cancer cell lines (in words)” value [4] was “strong cancer cell growth inhibitory properties; also recorded: remarkably potent and specific”, the “activity against human cancer cell lines (in words)” value ([4]; listed as Dictyostatin 1) was “phenomenally potent (and selective) activity; also recorded: strongly inhibit growth” and the “NCI data (in words)” value ([4]; ovarian, CNS, renal, lung (non small cell), colon, and melanoma cells) was “extremely positive results”. The “activity against A-498 (in words)” value [5] was “active and selective”, the “activity against SK-MEL-5 (in words)” value [6] was “active and selective” and the “activity against KM 20L2 (in words)” value [7] was “active and selective”. The “growth inhibition of murine P388 lymphocytic leukemia (in words)” value [8] was “strongly inhibit growth”, the IC50 ([8]; Mus musculus, P388, pure dictyostatin 1, read-out: P388 ED50) was 0.38 ng/mL (≈ 0.713 nM) and the “growth inhibition of murine P388 lymphocytic leukemia (in words)” value ([8]; listed as Dictyostatin 1) was “phenomenally potent (and selective) activity; also recorded: strongly inhibit growth”.

From patent US5430053A, “Isolation and structure of dictyostatin 1” (Arizona Board of Regents acting on behalf of Arizona State …, priority 1994, dated 1995)
